We go through two compounds from patent publication US20110301200A1, “THYROID RECEPTOR LIGANDS” (CADILA HEALTHCARE LIMITED, priority 2008, published 2011).

One series concerns the target T1, TR-α (Homo sapiens, UniProt P10827).
T1 sequence (P10827 1-410 isoform P10827-2): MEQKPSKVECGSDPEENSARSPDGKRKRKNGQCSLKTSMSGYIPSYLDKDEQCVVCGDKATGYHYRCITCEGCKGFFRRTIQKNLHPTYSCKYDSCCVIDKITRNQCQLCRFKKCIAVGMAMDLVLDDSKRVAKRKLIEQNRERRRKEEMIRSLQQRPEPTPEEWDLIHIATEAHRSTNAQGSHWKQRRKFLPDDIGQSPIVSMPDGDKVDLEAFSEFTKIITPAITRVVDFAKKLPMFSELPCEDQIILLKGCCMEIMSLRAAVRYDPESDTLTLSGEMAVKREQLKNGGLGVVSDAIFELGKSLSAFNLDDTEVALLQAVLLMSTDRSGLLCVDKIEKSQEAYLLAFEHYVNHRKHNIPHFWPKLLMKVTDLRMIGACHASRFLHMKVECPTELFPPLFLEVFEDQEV
The experiment in a line: In vitro TR-α activity (in-house protocol). It counts as cell-based. The method, then:
(§1) In vitro TR-α & TR-β activities were determined as per in-house protocols and the results of representative compounds are provided in tables 1 & 2 below as a proof of the efficacies of the novel class of compounds disclosed above.

For a further series, the system named is cholesterol-fed rats. Nature of the series: Cholesterol lowering and change in heart rate in cholesterol-fed rats. The class given is in vivo, rat. The note with it: treated for 7 days. The method, then: Cholesterol lowering effect of T3 and selected compounds disclosed in the present invention on cholesterol lowering and change in heart rate in cholesterol-fed rats (treated for 7 days) was determined according to the general protocol described in PNAS, vol. […] Therefore, these compounds have the potential to be further developed as selective TR-beta agonists for the treatment of human & other animals in need of such treatment.

The target in the next series is T2, TR-β (Homo sapiens, UniProt P10828).
T2 sequence (P10828 1-461): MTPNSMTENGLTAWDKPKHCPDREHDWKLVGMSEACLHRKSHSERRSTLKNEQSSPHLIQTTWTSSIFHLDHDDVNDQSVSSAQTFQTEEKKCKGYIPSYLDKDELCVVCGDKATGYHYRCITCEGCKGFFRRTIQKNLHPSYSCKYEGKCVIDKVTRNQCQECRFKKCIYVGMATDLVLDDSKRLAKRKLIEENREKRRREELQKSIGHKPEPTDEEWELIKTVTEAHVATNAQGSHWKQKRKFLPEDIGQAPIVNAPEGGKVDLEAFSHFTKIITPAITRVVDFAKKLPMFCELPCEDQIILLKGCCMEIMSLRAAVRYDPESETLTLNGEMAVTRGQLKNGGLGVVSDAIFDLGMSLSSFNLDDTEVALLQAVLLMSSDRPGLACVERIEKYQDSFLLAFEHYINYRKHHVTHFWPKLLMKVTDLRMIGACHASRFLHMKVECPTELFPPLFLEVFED
The experiment in a line: In vitro TR-β activity (in-house protocol). It counts as cell-based. The method, then:
as §1

By EC50 is commonly meant the midpoint of the concentration-response curve.

Regarding `CC(ON=Cc1cc(Br)c(Oc2ccc(O)c(C(C)C)c2)c(Br)c1)C(=O)O` (centres unmarked) [Example 10, 2-(((3,5-dibromo-4-(4-hydroxy-3-isopropylphenoxy)benzylidene)amino)oxy)propanoic acid], the EC50 at TR-α was 25 nM. Moreover, in the series with cholesterol-fed rats (oral 0.2 mg/kg), the “% Change in Heart Rate” value was 9.5% and the “% Change in Total Cholesterol” value was −45%. Moreover, the EC50 on TR-β was 3.25 nM.

Consider `CCC(C)c1cc(Oc2c(Br)cc(C=NOC(C)C(=O)O)cc2Br)ccc1O` (centres unmarked) [Example 14, 2-(((3,5-dibromo-4-(3-(sec-butyl)-4-hydroxyphenoxy)benzylidene)amino)oxy)propanoic acid], for which, on TR-α, the EC50 was 5.12 nM. In the series on cholesterol-fed rats (oral 0.1 mg/kg), the “% Change in Heart Rate” value was −2% and the “% Change in Total Cholesterol” value is reported as −44%. This compound displayed an EC50 at TR-β of 0.99 nM.
